Source: patent US4837228A, “Antiinflammatory and antimicrobial compounds and compositions” (The University of Mississippi, priority 1982, dated 1989)
In brackets after ≈: the same amount, converted by molar mass. Several values for one entry are separate records, joined by “and”; a condition that tells them apart may be missing. Identical values can stand only once. Like-named read-outs stand apart in the source and are kept apart here.

Tests used:
[1] = system: Aspergillus niger; assay: agar well diffusion assay, A. niger; format: cell-based; details: from edge of agar well
Procedure: (§1) Both qualitative and quantitative screens were performed. Qualitative screening was accomplished using the agar well diffusion assay technque while quantitative screening was accomplished by the two-fold (broth) serial dilution method to determine the minimum inhibitory concentration (MIC). Innoculation was accomplished with one loop-full of a 1:10 dilution of the 24-hour-old broth culture, (fungal cultures and M.smegmatis more often required 48 to 72 hours of incubation) of the test organisms in sterile water. Streptomycin sulfate was used as a positive control for antibacterial activity while amphitericin B was used as an antifungal positive control. Organisms utilized in the screens included gram-positive, gram-negative, and acid-fast bacteria as well as different types of fungi. […] An intermediate type activity is seen where R is hydrogen. However, where R is lengthened up to C15 a decrease in activity was noted. Total saturation of the two double bonds in the compounds having a methyl side chain lead, in most cases, to an increase in both antifungal and antibacterial activity.

[2] = system: Staphylococcus aureus; assay: MIC, two-fold (broth) serial dilution, S. aureus; format: cell-based
Procedure: as §1

[3] = system: Pseudomonas aeruginosa; assay: agar well diffusion assay, Ps. aeruginosa; format: cell-based; details: from edge of agar well
Procedure: as §1

[4] = system: Mycobacterium smegmatis; assay: agar well diffusion assay, M. smegmatis; format: cell-based; details: from edge of agar well
Procedure: as §1

[5] = system: Staphylococcus aureus; assay: agar well diffusion assay, S. aureus; format: cell-based; details: from edge of agar well
Procedure: as §1

[6] = system: Bacillus subtilis; assay: agar well diffusion assay, B. subtilis; format: cell-based; details: from edge of agar well
Procedure: as §1

[7] = system: Bacillus subtilis; assay: MIC, two-fold (broth) serial dilution, B. subtilis; format: cell-based
Procedure: as §1

[8] = system: Candida albicans; assay: agar well diffusion assay, C. albicans; format: cell-based; details: from edge of agar well
Procedure: as §1

[9] = system: Saccharomyces cerevisiae; assay: agar well diffusion assay, S. cerevisiae; format: cell-based; details: from edge of agar well
Procedure: as §1

[10] = system: Escherichia coli; assay: agar well diffusion assay, E. coli; format: cell-based; details: from edge of agar well
Procedure: as §1

[11] = system: carrageenan-induced rat paw edema; assay: carrageenan-induced rat paw edema test, intraperitoneal dosing; format: in vivo; details: Table 5, * P = 0.01
Procedure: Two methods were used to assess the antiinflammatory activity of the compounds of the invention: the carrageenan-induced rat paw edema test and, the erythrocyte membrane stabilization assay.
In the Rat Paw Edema Test, the rats utilized were divided into test groups of six to eight animals, weighed and marked so that individual rats could be identified; one hour before testing all rats were given a 700 mg/kg intraperitoneal injection of ethyl urethane in distilled water to render them tractable during testing. A circle was drawn, with a felt-tipped marker, around the hind leg of each rat just above the ankle, and each rat was dosed with a test or control compound by intraperitoneal injection. Negative control groups received the vehicle; while positive control groups received a dose of phenylbutazone (PBZ) as shown in Table II. Test compounds were given at doses of 60, 120, 240 and 480 mg/kg. The positive controls were given at 120 mg/kg and 60 mg/kg. Phenylbutazone was prepared for injection by suspending it in normal saline using Tween 60. The rats were then held in group cages for 30 minutes. The volume of the left hind paw was measured using a mercury displacement pleysmograph. The paw is dipped into the mercury until the mercury touches the line above the ankle. Mercury is then withdrawn until the mercury returns to its original level. The amount of mercury removed is measured in milliliters (ml). The mercury can be measured accurately to 0.01 ml. This left hind paw was then injected with 0.1 ml of a 5% w/v solution of viscous carageenan in normal saline. The injection was given between the metatarsal bones using a 27 gauge needle, and the rats then held in group cages for 3 hours. The volume of the left hind paws was measured again in the pleysmograph. The results were computed in the following manner:
a. A mean is taken for both the pre-injection and post-injection paw volume of each test group.
b. The mean difference in volume (MDV) for each test group is computed by subtracting the pre-injection means from the post-injection mean.
c. The percent of control is computed for each test [formula] The percent of control is used to compare the efficacy of the various drug treatments.
d. The percent increase in paw volume is calculated for each group as: [formula] The percent increase is used to compare the amount of edma observed in one experiment to the amount of edma observed in other experiments.
The data from the rat paw test were further analyzed using a one-way analysis of varience (ANOVA) and Duncan's New Multiple Range Test. The pre-injection score of each animal was subtracted from his post-injection score and an analysis of the different scores were conducted.
The procedure described above was followed. […] The vehicle control used was Tween 60, Arlacel and distilled water prepared without CBC(II).

[12] = system: Trichophyton mentagrophytes; assay: agar well diffusion assay, T. mentagrophytes; format: cell-based; details: for agar well diffusion result in words: one entry across 48 hr and 72 hr; for width of inhibition zone: from edge of agar well
Procedure: as §1

[13] = system: Saccharomyces cerevisiae; assay: MIC, two-fold (broth) serial dilution, S. cerevisiae; format: cell-based
Procedure: as §1

[14] = system: Mycobacterium smegmatis; assay: MIC, two-fold (broth) serial dilution, M. smegmatis; format: cell-based
Procedure: as §1

[15] = system: Candida albicans; assay: MIC, two-fold (broth) serial dilution, C. albicans; format: cell-based
Procedure: as §1

[16] = system: Trichophyton mentagrophytes; assay: MIC, two-fold (broth) serial dilution, T. mentagrophytes; format: cell-based
Procedure: as §1

[17] = system: erythrocyte (heat-induced hemolysis); assay: erythrocyte membrane stabilization assay (heat-induced erythrocyte hemolysis); format: cell-based; details: Erythrocyte, 1 × 10^-4 M
Procedure: The published procedure (Proc. Soc. Exp. Biol. Med. 1967; 125; 837-842 Brow et al) for in vitro assay for antiinflammatory agents based on stabilization of erythrocytes was used. All compounds were prepared for administration by dissolving in physiologic saline or suspending in 2% ethanol in saline and the pH adjusted to 7.4 The concentrations tested in one series are given in Table 8. Aspirin (ASA) and phenylbutazone were used as positive controls for comparison of activity. Tests using this procedure were successfully and repeatedly using either 40% or 20% RBC suspensions.

[18] = Trichophyton mentagrophytes, 72 h, read-out: MIC
[19] = Staphylococcus aureus, 24 h, read-out: MIC
[20] = Staphylococcus aureus, 48 h, read-out: MIC
[21] = Trichophyton mentagrophytes, 48 h, read-out: MIC
[22] = Mycolicibacterium smegmatis, 24 h, read-out: MIC
[23] = Mycolicibacterium smegmatis, 48 h, read-out: MIC
[24] = 48 hr, listed as Iso CBC (VIII)
[25] = 72 hr, listed as Iso CBC (VIII)

Compound	width of inhibition zone ([1]; 48 hr)	width of inhibition zone ([1]; 72 hr) [mm]	width of inhibition zone ([3]; 24 hr) [mm]	width of inhibition zone ([3]; 48 hr) [mm]	width of inhibition zone ([4]; 24 hr) [mm]	width of inhibition zone ([4]; 48 hr) [mm]	width of inhibition zone ([5]; 24 hr) [mm]	width of inhibition zone ([5]; 48 hr) [mm]	width of inhibition zone ([6]; 24 hr) [mm]	width of inhibition zone ([6]; 48 hr) [mm]	width of inhibition zone ([8]; 48 hr)	width of inhibition zone ([8]; 72 hr) [mm]	width of inhibition zone ([9]; 48 hr) [mm]	width of inhibition zone ([9]; 72 hr)	width of inhibition zone ([10]; 24 hr) [mm]	width of inhibition zone ([10]; 48 hr) [mm]	agar well diffusion result in words [12]	MIC ([13]; 48 hr)	MIC ([13]; 72 hr) [µg/mL]	MIC [16, 18] [µg/mL]	other results
2-methyl-2(4'-methyl-pentyl)-5-hydroxy-7-methyl chroman [CBC (V)]	3. mm	3.	4.	3.	25.	25.	25.	25.	16.0	9.0	3.0 mm	3.0	22.	22. mm	5.	5.	No growth	6.25 µg/mL and 12.5 µg/mL	12.5	–	MIC ([2]; 48 hr): 3.12 µg/mL; MIC ([7]; 24 hr): 3.12 µg/mL and 1.56 µg/mL; MIC ([7]; 48 hr): 3.12 µg/mL and 1.56 µg/mL; inhibition of carrageenan-induced rat paw edema ([11]; 60 mg/kg i.p.): 53%; inhibition of carrageenan-induced rat paw edema ([11]; 120 mg/kg i.p.): 63%; inhibition of carrageenan-induced rat paw edema ([11]; 240 mg/kg i.p.): 92%; MIC ([14]; 24 hr): 3.12 µg/mL
C[C@@H]1[C@H](O)[C@@H](C)/C=C/C=C/C=C/C=C/C=C/C=C/C=C/[C@H](O[C@@H]2O[C@H](C)[C@@H](O)[C@H](N)[C@@H]2O)C[C@@H]2O[C@](O)(C[C@@H](O)C[C@@H](O)[C@H](O)CC[C@@H](O)C[C@@H](O)CC(=O)O[C@H]1C)C[C@H](O)[C@H]2C(=O)O [Amphotericin B, reference compound]	4. mm and 2. mm	–	–	–	–	–	–	–	–	–	7. mm and 5. mm	–	7.	8. mm and 5. mm	–	–	No growth	–	–	25 (≈ 27.1 µM)	MIC ([15]; 72 hr): 25 µg/mL (≈ 27.1 µM); width of inhibition zone ([12]; 48 hr): 4. mm; width of inhibition zone ([12]; 72 hr): 4. mm; MIC ([16]; 48 hr): 25.0 µg/mL (≈ 27.1 µM); MIC ([16]; 72 hr): 25.0 µg/mL and 50 µg/mL
CC(C)=CCCC1(C)C=Cc2c(O)cccc2O1 (stereo not shown) [CBC (VI), 2-methyl-2-(4'-methyl-pent-3'-enyl)-5-hydroxychromene]	9. mm	5.	3.	–	20.	18.	15.	15.	10.	10.	7. mm	5.	10.	8. mm	3.	2.	–	25.0 µg/mL (≈ 102 µM)	25.0 (≈ 102 µM)	25 (≈ 102 µM)	inhibition at 100 µM ([17]; Table 8, read-out: inhibition of heat-induced erythrocyte hemolysis): 69%; MIC [2, 19]: 12.5 µg/mL (≈ 51.2 µM); MIC [2, 20]: 12.5 µg/mL (≈ 51.2 µM); MIC ([15]; 48 hr): 50.0 µg/mL (≈ 205 µM); MIC ([15]; 72 hr): 50.0 µg/mL (≈ 205 µM); MIC ([15]; Candida albicans, 48 h, read-out: MIC): 50 µg/mL (≈ 205 µM); MIC ([15]; Candida albicans, 72 h, read-out: MIC): 50 µg/mL (≈ 205 µM); MIC ([7]; Bacillus subtilis, 24 h, read-out: MIC): 6.25 µg/mL (≈ 25.6 µM); MIC ([7]; Bacillus subtilis, 48 h, read-out: MIC): 12.5 µg/mL (≈ 51.2 µM); width of inhibition zone ([12]; 48 hr): 20. mm; width of inhibition zone ([12]; 72 hr): 19. mm; MIC ([16]; 48 hr): 25.0 µg/mL (≈ 102 µM); MIC ([16]; 72 hr): 25.0 µg/mL (≈ 102 µM); MIC [16, 21]: 25 µg/mL (≈ 102 µM); MIC ([13]; Saccharomyces cerevisiae, 48 h, read-out: MIC): 25 µg/mL (≈ 102 µM); MIC ([13]; Saccharomyces cerevisiae, 72 h, read-out: MIC): 25 µg/mL (≈ 102 µM); MIC [14, 22]: 12.5 µg/mL (≈ 51.2 µM); MIC [14, 23]: 12.5 µg/mL (≈ 51.2 µM)
CC(C)=CCCC1(C)C=Cc2ccc(O)cc2O1 (stereo not shown) [Iso CBC (VII), 2-methyl-2(4'-methyl-pent-3'-enyl)-7-hydroxychromene]	1. mm	–	4.	4.	6.	4.	10.	10.	10.	7.	3. mm	2.	2.	2. mm	2.	2.	No growth	–	–	6.25 (≈ 25.6 µM)	inhibition at 100 µM ([17]; read-out: inhibition of heat-induced erythrocyte hemolysis, Table 8): 43%; MIC [2, 19]: 12.5 µg/mL (≈ 51.2 µM); MIC [2, 20]: 12.5 µg/mL (≈ 51.2 µM); width of inhibition zone ([4]; 24 hr, listed as Iso CBC (VIII)): 5. mm; width of inhibition zone [4, 24]: 5. mm; MIC [15, 24]: 12.5 µg/mL (≈ 51.2 µM); MIC [15, 25]: 25 µg/mL (≈ 102 µM); width of inhibition zone [8, 24]: 4. mm; width of inhibition zone [8, 25]: 5. mm; width of inhibition zone [9, 24]: 4. mm; width of inhibition zone [9, 25]: 4. mm; MIC [16, 21]: 6.25 µg/mL (≈ 25.6 µM); MIC ([14]; 24 hr): 12.5 µg/mL (≈ 51.2 µM); MIC ([14]; 48 hr): 12.5 µg/mL (≈ 51.2 µM); MIC [14, 22]: 25 µg/mL (≈ 102 µM); MIC [14, 23]: 25 µg/mL (≈ 102 µM)
